Where a SMILES comes first, the peptide text is derived from it. [ ]: non-standard residue; d: D form. The star is where a group is joined. Dolaproine = CO[C@@H]([C@@H]1CCCN1)[C@@H](C)C(=O)O; Dil = CC[C@H](C)[C@H](NC)[C@@H](CC(=O)O)OC; X1 = C[C@@H](N*)[C@@H](O)c1ccccc1; NMeV = CN[C@H](C(=O)O)C(C)C
Experiments:
[1] = test system: HCC1954 breast ductal carcinoma cells; experiment: In vitro potency, cell viability (Cell Titer Glo 2.0), HCC1954; type: cell-based; conditions: Homo sapiens, HCC1954, 120 h
Protocol: (§1) HCC1954 breast ductal carcinoma or SK-BR-3 cells (ATCC, Manassas, VA, USA) were seeded into 384-well white-walled culture plates and allowed to adhere for 2-4 hours. Cells were then treated with test articles at least in duplicate by addition of 5-fold serially diluted test articles prepared at 2× final concentration and incubated at 37° C. for 120 hours. Cell viability following treatment was determined by Cell Titer Glo 2.0 Assay (Promega, Madison, WI, USA) and normalized to non-treated controls. Dose-response relationships were analyzed using GraphPad Prism (La Jolla, CA, USA), and IC50 values were derived from non-linear regression analyses using a 4-parameter logistic equation.

[2] = test system: SK-BR-3 cells; experiment: In vitro potency, cell viability (Cell Titer Glo 2.0), SK-BR-3; type: cell-based; conditions: Homo sapiens, SK-BR-3, 120 h
Protocol: as §1

CC[C@H](C)[C@@H]([C@@H](CC(=O)N1CCC[C@H]1[C@H](OC)[C@@H](C)C(=O)N[C@H](C)[C@@H](O)c1ccccc1)OC)N(C)C(=O)[C@@H](NC(=O)[C@@H](NC)C(C)C)C(C)C [MMAE, (S)-N-((3R,4S,5S)-1-((S)-2-((1R,2R)-3-(((1S,2R)-1-hydroxy-1-phenylpropan-2-yl)amino)-1-methoxy-2-methyl-3-oxopropyl)pyrrolidin-1-yl)-3-methoxy-5-methyl-1-oxoheptan-4-yl)-N,3-dimethyl-2-((S)-3-methyl-2-(methylamino)butanamido)butanamide] (H-[NMeV]V[Dil][Dolaproine]-X1) was tested, and the IC50 [1] was 0.21 nM and the IC50 [2] was 0.127 nM.

From patent US20250064955A1, “DRUG CONJUGATES AND METHODS OF PREPARING AND USING THE SAME” (priority 2021, published 2025)
